≈ marks a conversion by molar mass, not a printed value.
Columns and labels:
[1] = physchem; details: thermodynamic from solid
Procedure: The solubility of bortezomib in select non-aqueous solvents was determined to understand if any of these solvents may be useful (as a co-solvent with water) at low concentrations in the final formulation.
Approximately 25 mg of bortezomib was added to a suitable container. An initial volume of 0.5 mL of the non-aqueous solvent was added and the mixture stirred for 5 minutes. The appearance of the solution was recorded. […] If the bortezomib was not fully dissolved, additional volume of solvents were added in 0.25 mL increments with mixing for 5 minutes after each addition, and recording the appearance of the solution, until the bortezomib was fully dissolved, up to a total volume of 10 mL.

[2] = cited from earlier work
[3] = Accelerated / room temperature stability testing at 25° C./60% RH, HPLC assay and impurities (percent of nominal bortezomib concentration); format: physicochemical
Procedure: The compositions described herein are storage stable aqueous liquid ready-to-use compositions. The degradation of the active ingredient, as well as the formation of various impurities is controlled by the composition to a minimal level. Stability testing was performed at the long-term stability condition (2-8° C.) as well as the accelerated stability condition (25±2° C./60±5% RH) for refrigerated products. At each time point, the bortezomib content (assay) and the impurity profile was determined using an HPLC procedure, and a bortezomib reference standard. The HPLC method utilizes a reverse phase column with an aqueous formic acid/acetonitrile and aqueous formic acid/methanol mobile phase gradient and UV/PDA detector at a wavelength of about 270 nm.
The effect of pH on bortezomib formulations using a low concentration of DMSO in water (4.5% v/v DMSO for the 2.5 mg/mL strength and 1% v/v DMSO for the 1 mg/mL strength) was then assessed. In each case, the bortezomib was first fully dissolved in the batch quantity of DMSO to form a concentrated premix solution, which was then added to water, and the pH adjusted with sodium hydroxide and/or hydrochloric acid to pH ranging from 4 to 8.5. […] Because oxidative degradation is a significant degradation pathway for bortezomib, filled vials were overlayed with nitrogen. These batches were placed on stability at accelerated (25° C.) and long-term storage conditions (2-8° C.). […] Although the 2.5 mg/mL formulations were not physically stable at 25° C., chemical stability, based on analysis after 2 months at 25° C., stability was poor at pH 4 and pH 8.5 for both strengths, with good stability being observed at pH 5.5 for the 2.5 mg/mL strength and pH 5.5 and 7 for the 1 mg/mL strength.
The preparation of the concentrated bortezomib premix is performed. The batch quantity of bortezomib is added to a suitable glass container. The batch quantity of the non-aqueous solvent is then added to the bortezomib, and mixed until the bortezomib is completely dissolved. The initial aqueous component is separately prepared by dissolving the other excipients such as buffer, optionally a solubilizer and/or stabilizer, or a tonicity adjuster, in water for injection, which optionally has been degassed by sparging nitrogen through it and adjusting to the desired pH using appropriate pH adjusting agent, if needed. The aqueous component is typically prepared at about double the corresponding concentration(s) in the final formulation; this was typically accomplished by dissolving the excipients in approximately half the batch volume of water. The bortezomib premix is then added to the (concentrated) aqueous component, and mixed. Water is then added to make up to about 80-90% of the batch volume and a final pH adjustment is performed to the target pH using appropriate pH adjusting agent, if needed. After final pH adjustment, the batch is made up to the target batch volume. The batch is then sterile filtered using a 0.2 micron filter, filled into (2-mL, or 3-mL, or 5-mL) USP Type I, optionally amber, glass vials, stoppered with (13-mm or 20-mm) fluoropolymer-coated chlorobutyl rubber stoppers, and sealed with (13-mm or 20-mm) aluminum caps. The fill volume used is typically 3.5 mL for the 1 mg/mL formulations or 1.4 mL for the 2.5 mg/mL formulations (to contain 3.5 mg bortezomib per vial). Because bortezomib is known to be oxidation and light sensitive, compounding and filling is typically carried out in a glove box equilibrated with nitrogen at various residual oxygen levels (typically less than 5%). Light exposure is minimized.
The stability testing under accelerated conditions (25° C. and 60% relative humidity for at least 6 months) of these formulations is presented in Table 6.

[4] = Formulation trials with low concentrations of benzyl alcohol / DMSO in water: visual dissolution and physical stability; format: physicochemical; details: benzyl alcohol (2% v/v), DMSO (5% v/v) or combination added to bortezomib, then water; mixing >3 hours
Procedure: Initial formulation experiments with low concentrations of various non-aqueous solvents were conducted targeting a bortezomib concentration of 2.5 mg/mL. Attempts to solubilize bortezomib were conducted using low concentrations of benzyl alcohol (2% v/v), or dimethyl sulfoxide (5% v/v), or a combination of these solvents. […] For these formulations, the non-aqueous solvent was added to bortezomib to dissolve it, followed by addition of water to the bortezomib-solvent mixture.
Various concentrations of DMSO were explored as the non-aqueous component of the formulation (2% v/v to 5% v/v in water). Bortezomib was first completely dissolved in the batch volume of DMSO to form a concentrated “premix” solution prior to making up the batch to the target concentration (2.5 mg/mL) with water. This was done to facilitate the subsequent dissolution of bortezomib in the aqueous component.

[5] = Solubility by HPLC, bortezomib premixed with nonaqueous solvent before addition to aqueous component; format: physicochemical; details: aqueous with cosolvent or surfactant or cyclodextrin, kinetic from dmso stock; premix in non-aqueous solvent, aqueous system with 25 mg/mL mannitol
Procedure: This example was carried out to determine the solubility of bortezomib in particular solvents and solvent systems when the bortezomib is first dissolved in (the batch quantity) of a non-aqueous solvent to form a concentrated solution (“premix”), prior to adding the premix to the aqueous component(s). A bortezomib sample (between 10 and 50 mg) was placed in a suitable glass container and added to a defined volume of a nonaqueous solvent system (if used) as defined below in Table 4, to create a concentrated premix. The premix was subsequently added to enough buffered aqueous solvent to make a final volume of 5 mL, as defined below in Table 4.
The resulting formulation was allowed to equilibrate for 24 hours at room temperature, protected from light. Solubility was determined by filtration through a 0.45 micron filter, and assay of the filtrate for bortezomib content using an HPLC procedure, and a bortezomib standard. One mL aliquots of the filtrate (saturated solution) were subjected to three freeze-thaw cycles of 24 hours at −20° C. and 24 hours at 25° C. each, with visual examination after each cycle. Absence of precipitation after the three cycles was used as an index of physical stability of the formulation upon long-term storage.

[6] = Equilibrium solubility by HPLC, bortezomib added directly to solvent system; format: physicochemical; details: buffered aqueous solutions, aqueous buffer, thermodynamic from solid; pH range of 4 to 7
Procedure: Because pH appeared to influence chemical stability, sodium acetate or sodium phosphate were included in these matrixes as buffers, and the effect of pH on solubility was also assessed.
The components were mixed (by shaking the glass container), and the mixture was observed. […] The suspension was allowed to equilibrate for 24 hours at room temperature while being protected from light. After the incubation, the solution phase was removed from the container into a clean vial by filtration through a 0.45 micron syringe filter, and the filtrate was assayed for bortezomib content using an HPLC procedure, and a bortezomib standard.

solubility at 5 min ([1]; N-methyl pyrrolidone (NMP), organic solvent or mixture): > 25000 µg/mL | solubility at 5 min ([1]; benzyl alcohol, organic solvent or mixture): > 50000 µg/mL | solubility at 5 min ([1]; dimethyl sulfoxide (DMSO), organic solvent or mixture): > 50000 µg/mL | solubility at 5 min ([1]; ethanol, organic solvent or mixture): ~4500 µg/mL (≈ 11.7 mM) | solubility at 5 min ([1]; glycerol, organic solvent or mixture): < 2500 µg/mL | solubility at 5 min ([1]; polyethylene glycol 400, organic solvent or mixture): < 2500 µg/mL | solubility at 5 min ([1]; propylene glycol, organic solvent or mixture): ~3600 µg/mL (≈ 9.37 mM) | Total Impurities after 2 months at 25° C. (%) ([3]; 1 mg/mL bortezomib, 1% (v/v) DMSO in water, pH 4): 7.83% | Total Impurities after 2 months at 25° C. (%) ([3]; 1 mg/mL bortezomib, 1% (v/v) DMSO in water, pH 5.5): 0.52% | Total Impurities after 2 months at 25° C. (%) ([3]; 1 mg/mL bortezomib, 1% (v/v) DMSO in water, pH 7): 1.18% | Total Impurities after 2 months at 25° C. (%) ([3]; 1 mg/mL bortezomib, 1% (v/v) DMSO in water, pH 8.5): 12.48% | Total Impurities after 2 months at 25° C. (%) ([3]; 2.5 mg/mL bortezomib, […] (v/v) DMSO in water, pH 4): 13.71% | Total Impurities after 2 months at 25° C. (%) ([3]; 2.5 mg/mL bortezomib, […] (v/v) DMSO in water, pH 5.5): 1.07% | Total Impurities after 2 months at 25° C. (%) ([3]; 2.5 mg/mL bortezomib, […] (v/v) DMSO in water, pH 7): 5.91% | Total Impurities after 2 months at 25° C. (%) ([3]; 2.5 mg/mL bortezomib, […] (v/v) DMSO in water, pH 8.5): 31.59% | dissolution at target 2.5 mg/mL [4]: precipitated after addition of water | solubility at 24 h [5]: > 4000 µg/mL | solubility at 24 h [6]: < 500 µg/mL
SMILES: CC(C)C[C@H](NC(=O)[C@H](Cc1ccccc1)NC(=O)c1cnccn1)B(O)O [Bortezomib, [(1R)-3-methyl-1-[[(2S)-1-oxo-3-phenyl-2-[(pyrazinylcarbonyl)amino]propyl]amino]butyl] boronic acid]
solubility of bortezomib in water or buffered aqueous solutions reported by the suppliers [2]: < 0.1 mg/mL

From patent US20230096601A1, “BORTEZOMIB COMPOSITIONS” (MAIA Pharmaceuticals, Inc., priority 2021, published 2023)
